Counter-ions that a name gives are not always drawn.
Experiments:
[1] = General effect on mental faculties (memory) of a first subject; assay type: in vivo, human; conditions: 100 mg once daily over 40 days, after nocturnal sleep, same subject after ceasing GSE
Description: A first subject consumed a capsule containing 300 mg of Meganatural-BP® over a period of 18 months, once daily, immediately after nocturnal sleep. […] The same subject ceased to consume GSE and immediately subsequent consumed capsules of 100 mg EGCG (Lyan) over a period of 40 days, once daily, immediately after nocturnal sleep. 300 mg of Meganatural-BP® and 60 mg of EGCG capsules were concomitantly administered to the same subject, immediately after nocturnal sleep, following the EGCG regime.

[2] = test system: amyloid fibrils; conditions: in-vitro; cited from earlier work
[3] = test system: β-amyloid peptides; conditions: cited from earlier work
[4] = test system: Alzheimer patients; experiment: Effect on an Alzheimer patient: cognitive state and mini-mental state examination (MMSE); assay type: in vivo, human; conditions: daily, discontinued after two weeks; person, MMSE 13
Description: Six weeks after the diagnosis, the patient's condition continued to deteriorate. The patient was administered memantine hydrochloride (Ebixa® tablet), an antidementia medicine, on a daily basis. Blood-pressure reducing medication was concomitantly administered and the blood pressure was measured to be on the average of 130/70 systolic/diastolic. However, the patient's deterioration appeared to be unaffected by the drug and administration of Ebixa was consequently discontinued after two weeks.
The following four months were characterized by sporadic memory lapses typical of a moderately severe affliction as well as behavioral deteriorations that occurred from time to time
Consequently, the blood-pressure reducing medication was discontinued and the administration of GSE was reduced to one capsule per day (300 mg) as GSE is known to reduce blood pressure.

Compound	improvement of memory [1]	formation of β-sheet rich aggregation products such as amyloid fibrils [2]	generation of β-amyloid peptides [3]	patient's deterioration [4]
Epigallocatechin-3-gallate [EGCG]	No improvement of memory	prevented	reduces	
CC12CC3CC(C)(C1)CC(N)(C3)C2 [memantine hydrochloride]				unaffected
